Structures can show the parent of a compound that is named as a salt.
Each compound was assayed on Plasmodium falciparum: 3D7 strain (assay: P. falciparum 3D7 asexual blood stage assay (SYBR green readout)). Conditions: Plasmodium falciparum, 3D7, Erythrocyte, 72 h, P. falciparum 3D7 in human erythrocytes, 72 h incubation, SYBR green fluorescence.
Format: cell-based
Excerpt: The compounds of the present invention are potent inhibitors of the growth and propagation of the Plasmodium falciparum parasite in human blood.
The assay used to measure the effect of test compounds on a bloodstream stage of Plasmodium falciparum: 3D7 strain employs SYBR green as the readout. This is a dye that binds to double stranded deoxyribonucleic acid (DNA) with a resulting increase in fluorescence, allowing detection of P. falciparum DNA in infected erythrocytes, and thereby providing a measure of parasite growth and propagation.
Erythrocytes (A+blood) were prepared for both parasite culture and assay by washing 4 times with incomplete media (15.9 g RPMI 1640 (25 mM HEPES, L-glutamine), 1 g NaHCO3, 2 g glucose, 400 μL gentacin (500 mg/mL), 2 mL hypoxanthine solution (13.6 g/L in 0.1M NaOH pH 7.3) in 1 litre of media). The cells were centrifuged at 1800 g for 5 minutes, before decanting the supernatant and re-suspending in fresh incomplete media. On the final wash, the cells were re-suspended in complete media (incomplete media with 5 g/L AlbumaxII), and centrifuged at 1800 g for 3 minutes. This cell sediment was treated as 100% haematocrit.
P. falciparum 3D7 was cultured in erythrocytes at 5% haematocrit in complete media at 37° C. (1% O2, 3% CO2, balance N2). Cultures were split on a weekly basis to achieve a 1% parasitaemia in erythrocites at 5% haematocrit in fresh media. Culture media is replaced by fresh media every other day (2 times during the week).
On day 1, test compounds were added to assay plates using Echo dispensing technology ([…] and 20 points titration). 50 nL of each compound dilution was added to 50 μL of culture (5% haematocrit, 0.5% parasitaemia) and incubated for 72 h at 37° C. (1% O2, 3% CO2, balance N2). Final concentrations of test compounds ranged from 50,000 nM to 15 nM, in […].
On day 4, 10 μL SYBR green (Invitrogen S7563 supplied as 10,000×concentrate in DMSO) pre-diluted to 3×concentrate with Lysis buffer (20 mM Tris pH 7.9, 5% EDTA, 0.16% w/v, 1.6% TX100 v/v) was added to the cultures and incubated in the dark, overnight, at room temperature.
On day 5, fluorescent signal was measured using a BioTek plate reader (excitation 485 nm, emission 528 nm). All data were processed using IDBS ActivityBase. Raw data were converted into percent inhibition through linear regression by setting the high inhibition control (mefloquine) as 100% and the no inhibition control (DMSO) as 0%. Quality control criteria for passing plates were as follows: Z′>0.5, S:B>3, % CV(no inhibition control)<15. The formula used to calculate Z′ is: […]
All EC50 curve fitting was undertaken using the following bi-phasic two site dose response using XLfit model 300 (IDBS):
where A=100 minus the top of the upper curve 1 and the bottom of lower curve; B=Hill slope; log(C)=IC50 concentration at lower site; log(D)=IC50 concentration at upper site; x=inhibitor concentration; and y=% inhibition.
`C[C@H]1C[C@@H](N2C(=N)N[C@](C)(c3cccc(-c4ccc(OC(F)F)nc4)c3Cl)CC2=O)CCS1(=O)=O` (relative stereo) [Example 71, (6S)-6-{2-Chloro-3-[6-(difluoro-methoxy)pyridin-3-yl]phenyl}-2-imino-6-methyl-3-[(2S*,4S*)-2-methyl-1,1-dioxothian-4-yl]-hexahydropyrimidin-4-one hydrochloride] gave an IC50 of 151 nM.
Compound `C[C@H]1C[C@H](N2C(=N)N[C@](C)(c3cccc(-c4ccc(OC(F)F)nc4)c3Cl)CC2=O)CCS1(=O)=O` (relative stereo) [Example 73, (6S)-6-{2-Chloro-3-[6-(difluoro-methoxy)pyridin-3-yl]phenyl}-2-imino-6-methyl-3-[(2S*,4R*)-2-methyl-1,1-dioxothian-4-yl]-hexahydropyrimidin-4-one hydrochloride] has an IC50 of 227 nM.
For `C[C@@H]1C[C@H](N2C(=N)N[C@](C)(c3cccc(-c4ccc(Cl)cn4)c3Cl)CC2=O)CCS1(=O)=O` (relative stereo) [Example 74, (6S)-6-[2-Chloro-3-(5-chloro-pyridin-2-yl)phenyl]-2-imino-6-methyl-3-[(2R*,4R*)-2-methyl-1,1-dioxothian-4-yl]hexahydro-pyrimidin-4-one hydrochloride], the IC50 was 59 nM.
`C[C@H]1C[C@@H](N2C(=N)N[C@](C)(c3cccc(-c4ccc(Cl)cn4)c3Cl)CC2=O)CCS1(=O)=O` (relative stereo) [Example 75, (6S)-6-[2-Chloro-3-(5-chloro-pyridin-2-yl)phenyl]-2-imino-6-methyl-3-[(2S*,4S*)-2-methyl-1,1-dioxothian-4-yl]hexahydro-pyrimidin-4-one hydrochloride] was tested, and the IC50 was 217 nM.
Work on `C[C@H]1C[C@H](N2C(=N)N[C@](C)(c3cccc(-c4ccc(Cl)cn4)c3Cl)CC2=O)CCS1(=O)=O` (relative stereo) [Example 76, (6S)-6-[2-Chloro-3-(5-chloro-pyridin-2-yl)phenyl]-2-imino-6-methyl-3-[(2S*,4R*)-2-methyl-1,1-dioxothian-4-yl]hexahydro-pyrimidin-4-one hydrochloride] yielded an IC50 of 2460 nM.
`C[C@@H]1C[C@@H](N2C(=N)N[C@](C)(c3cccc(-c4ccc(Cl)cn4)c3Cl)CC2=O)CCS1(=O)=O` (relative stereo) [Example 77, (6S)-6-[2-Chloro-3-(5-chloro-pyridin-2-yl)phenyl]-2-imino-6-methyl-3-[(2R*,4S*)-2-methyl-1,1-dioxothian-4-yl]hexahydro-pyrimidin-4-one hydrochloride] showed an IC50 of 460 nM.
`C[C@H]1C[C@@H](N2C(=N)N[C@](C)(c3cccc(-c4ccc(OC(F)(F)F)nc4)c3Cl)CC2=O)CCS1(=O)=O` (relative stereo) [Example 78, (6S)-6-{2-Chloro-3-[6-(trifluoro-methoxy)pyridin-3-yl]phenyl}-2-imino-6-methyl-3-[(2S*,4S*)-2-methyl-1,1-dioxothian-4-yl]-hexahydropyrimidin-4-one hydrochloride] was tested, and the IC50 was 365 nM.
With `C[C@@H]1C[C@H](N2C(=N)N[C@](C)(c3cccc(-c4ccc(OC(F)(F)F)nc4)c3Cl)CC2=O)CCS1(=O)=O` (relative stereo) [Example 79, (6S)-6-{2-Chloro-3-[6-(trifluoro-methoxy)pyridin-3-yl]phenyl}-2-imino-6-methyl-3-[(2R*,4R*)-2-methyl-1,1-dioxothian-4-yl]-hexahydropyrimidin-4-one hydrochloride] the IC50 was 107 nM.
Compound `C[C@H]1C[C@H](N2C(=N)N[C@](C)(c3cccc(-c4ccc(OC(F)(F)F)nc4)c3Cl)CC2=O)CCS1(=O)=O` (relative stereo) [Example 80, (6S)-6-{2-Chloro-3-[6-(trifluoro-methoxy)pyridin-3-yl]phenyl}-2-imino-6-methyl-3-[(2S*,4R*)-2-methyl-1,1-dioxothian-4-yl]-hexahydropyrimidin-4-one hydrochloride] has an IC50 of 1700 nM.
`C[C@@H]1C[C@@H](N2C(=N)N[C@](C)(c3cccc(-c4ccc(OC(F)(F)F)nc4)c3Cl)CC2=O)CCS1(=O)=O` (relative stereo) [Example 81, (6S)-6-{2-Chloro-3-[6-(trifluoro-methoxy)pyridin-3-yl]phenyl}-2-imino-6-methyl-3-[(2R*,4S*)-2-methyl-1,1-dioxothian-4-yl]-hexahydropyrimidin-4-one hydrochloride] showed an IC50 of 420 nM.
`C[C@H]1C[C@@H](N2C(=N)N[C@](C)(c3cccc(-c4cncc(Cl)c4)c3Cl)CC2=O)CC[C@H]1O` (relative stereo) [Example 82, (6S)-6-[2-Chloro-3-(5-chloro-pyridin-3-yl)phenyl]-3-[(1S*,3S*,4R*)-4-hydroxy-3-methylcyclohexyl]-2-imino-6-methylhexahydropyrimidin-4-one hydrochloride] was tested, and the IC50 was 265 nM.
With `C[C@@H]1C[C@H](N2C(=N)N[C@](C)(c3cccc(-c4cncc(Cl)c4)c3Cl)CC2=O)CC[C@@H]1O` (relative stereo) [Example 83, (6S)-6-[2-Chloro-3-(5-chloro-pyridin-3-yl)phenyl]-3-[(1R*,3R*,4S*)-4-hydroxy-3-methylcyclohexyl]-2-imino-6-methylhexahydropyrimidin-4-one hydrochloride] the IC50 was 52 nM.
`C[C@@]1(c2cccc(-c3cnn(CC(F)(F)F)c3)c2Cl)CC(=O)N([C@@H]2CCC(F)(F)[C@H](O)C2)C(=N)N1` (relative stereo) [Example 84, (6S)-6-{2-Chloro-3-[1-(2,2,2-trifluoroethyl)pyrazol-4-yl]phenyl}-3-[(1R*,3R*)-4,4-difluoro-3-hydroxycyclohexyl]-2-imino-6-methylhexahydropyrimidin-4-one hydrochloride] gave an IC50 of 339 nM.
`C[C@@]1(c2cccc(-c3cnn(CC(F)(F)F)c3)c2Cl)CC(=O)N([C@H]2CCC(F)(F)[C@@H](O)C2)C(=N)N1` (relative stereo) [Example 85, (6S)-6-{2-Chloro-3-[1-(2,2,2-trifluoroethyl)pyrazol-4-yl]phenyl}-3-[(1S*,3S*)-4,4-difluoro-3-hydroxycyclohexyl]-2-imino-6-methylhexahydropyrimidin-4-one hydrochloride] gave an IC50 of 2670 nM.
Compound `C[C@@]1(c2cccc(-c3cc(C4CC4)no3)c2Cl)CC(=O)N([C@@H]2CCC(F)(F)[C@H](O)C2)C(=N)N1` (relative stereo) [Example 86, (6S)-6-[2-Chloro-3-(3-cyclopropyl-isoxazol-5-yl)phenyl]-3-[(1R*,3R*)-4,4-difluoro-3-hydroxy-cyclohexyl]-2-imino-6-methyl-hexahydropyrimidin-4-one hydrochloride] has an IC50 of 286 nM.
Compound `C[C@@]1(c2cccc(-c3cc(C4CC4)no3)c2Cl)CC(=O)N([C@H]2CCC(F)(F)[C@@H](O)C2)C(=N)N1` (relative stereo) [Example 87, (6S)-6-[2-Chloro-3-(3-cyclopropyl-isoxazol-5-yl)phenyl]-3-[(1S*,3S*)-4,4-difluoro-3-hydroxycyclohexyl]-2-imino-6-methylhexahydro-pyrimidin-4-one hydrochloride] has an IC50 of 2910 nM.
`C[C@@]1(c2cccc(-c3cccc(Cl)c3)c2Cl)CC(=O)N([C@H]2CCOC[C@@H]2O)C(=N)N1` (relative stereo) [Example 95, (6S)-6-[2-Chloro-3-(3-chloro-phenyl)phenyl]-3-[(3R*,4S*)-3-hydroxytetrahydropyran-4-yl]-2-imino-6-methylhexahydro-pyrimidin-4-one hydrochloride] showed an IC50 of 323 nM.
For `C[C@@]1(c2cccc(-c3cccc(Cl)c3)c2Cl)CC(=O)N([C@@H]2CCOC[C@H]2O)C(=N)N1` (relative stereo) [Example 96, (6S)-6-[2-Chloro-3-(3-chloro-phenyl)phenyl]-3-[(3S*,4R*)-3-hydroxytetrahydropyran-4-yl]-2-imino-6-methylhexahydro-pyrimidin-4-one hydrochloride], the IC50 was 1430 nM.

Same assay, conditions: Plasmodium falciparum, Erythrocyte; P. falciparum 3D7 in human erythrocytes, 72 h incubation, SYBR green fluorescence; read-out: IC50
`C[C@@H]1C[C@@H](N2C(=N)N[C@](C)(c3cccc(-c4ccc(OC(F)F)nc4)c3Cl)CC2=O)CCS1(=O)=O` (relative stereo) [Example 72, (6S)-6-{2-Chloro-3-[6-(difluoro-methoxy)pyridin-3-yl|phenyl}-2-imino-6-methyl-3-[(2R*,4S*)-2-methyl-1,1-dioxothian-4-yl]-hexahydropyrimidin-4-one hydrochloride] was tested, and the IC50 was 913 nM.
